Assay [1] has as its system N27 cells. Nature of the assay: NBT assay of 6-OHDA-mediated ROS generation in N27 dopaminergic cells. The class given is cell-based, rat. Particulars: 6 h; for 6-OHDA-mediated ROS generation (NBT assay): inhibitor pre-treatment 30 min (DPI 0.1, 0.5, 1.0 μM; apocynin 0.1, 1.0, 10, 100 μM), then 6-OHDA 100 μM.
Experimental: N27 cells were pre-treated with various concentrations of DPI (0.1, 0.5, and 1.0 μM) for 30 min and then 6-OHDA (100 μM) was added. Superoxide was measured using the nitroblue tetrazolium (NBT) assay at 6 h post 6-OHDA.
Cells were grown in RPMI 1640 containing 10% FBS, 100 IU/1 penicillin, and 10 g/ml streptomycin at 37° C. with 5% CO2 supply in humidified atmosphere. For experiments, the cells were plated on polystyrene tissue culture dishes at a density of 2×10^4 cells/well in 96-well culture plates, 1×10^6 cells/well in 24-well culture plates, 1×10^6 cells/well in 6-well culture plates, or 2×10^6 cells/100 mm plate. After 24 h, the cells were fed with fresh medium and treated with 6-OHDA and/or other drugs.
6-OHDA treated cells were incubated for 1 h at 37° C. with a filtered solution of 0.3 mg/ml of NBT in complete medium. The cells were washed once with PBS and fixed with 0.4% paraformaldehyde for light microscopy. To quantify NBT precipitation, cells were washed twice with 70% methanol and fixed for 5 min in 100% methanol. After the wells were allowed to dry in the air, the formazan is solubilized with 120 μl 2M K OH and 140 μl DMSO. The OD was read in an ELISA plate reader at 590 nm.
Assay [2] relates to Nox1. Kind of assay: Nox1 expression (RT-PCR, immunoblot) in N27 cells exposed to toxins. The class given is cell-based, rat. From the text: The NADPH oxidase is a multi-subunit enzyme that consists of the catalytic subunits (Nox isoforms) together with the regulatory subunits including p22phox, p47phox, p40phox, p67phox, Nox organizer 1 (Noxo1), Nox activator 1 (Noxa1), and small GTPase Rac1. In order to test whether dopaminergic (DA) cells are equipped with the NOX components, N27, a well-established rat DA cell line was examined (Prasad et al. 1994). The mRNAs encoding each Nox isoform and regulatory subunits were detected using RT-PCR. Since transcriptional induction of Nox1 and Nox4 has already been reported in several tissues under a variety of stimuli, transcripts were determined in both nontreated and 6-hydroxydopamine (6-OHDA), a DA neurodegenerative compound, treated DA cells. ROS generation as induced by 6-OHDA (100 μM) and subsequent cell death was observed. All Nox isoforms (Nox1, Nox2, Nox4, Duox1 and Duox2) except Nox3 and Nox5 were detected (FIG. 1A). […] Mitochondria, which have long been considered as a major source of ROS, play a key role in Nox1-mediated superoxide generation (Desouki et al. 2005). […] Cytoplasmic regulatory subunits including p47phox, Noxa1, and Noxo1 were constitutively expressed in DA cells as well (FIG. 1A). Noxa1 and Noxo1 are homologues of p67phox and p47phox, respectively. They are involved in Nox1-mediated superoxide generation (Banfi et al. 2003, Geiszt et al. 2003). […] The activation of a small GTPase Rac1 is indispensable for Nox1 and Nox2 activation (Bokoch 2002). GTP-bound active Rac1 was measured in DA cells treated with 6-OHDA for various duration from 1 h to 6 h.
Total RNA was extracted from N27 cells using Trizol reagent (Invitrogen, Carlsbad, Calif.). Reverse transcription was performed for 1 h at 42° C. with 1 μg of total RNA using 20 unit/μl of AMV reverse transcriptase (Roche Applied Science, Indianapolis, Ind.), and oligo-p(dT)15 as a primer. The samples were then heated at 99° C. for 5 min to terminate the reaction. The cDNA obtained from 1 μg total RNA was used as a template for PCR amplification. Oligonucleotide primers were designed based on Genebank entries for rat NOX1 (sense, 5′-[…]-3′ SEQ ID NO. 1; antisense, 5′-[…]-3′ SEQ ID NO. 2), rat NOX2 (sense, 5′-[…]-3′ SEQ ID NO. 3; antisense, 5′-[…]-3′ SEQ ID NO. 4), rat NOX4 (sense, 5′-[…]-3′ SEQ ID NO. 5; antisense, 5′-[…]-3′ SEQ ID NO. 6), rat NOXA1 (sense, 5′-[…]-3′ SEQ ID NO. 7; antisense, 5′-[…]-3′ SEQ ID NO. 8), rat NOXO1 (sense, 5′-[…]-3′ SEQ ID NO. 9; antisense, 5′-[…]-3′ SEQ ID NO. 10), rat p47 (sense, 5′-[…]-3′ SEQ ID NO 11; antisense, 5′-[…]-3′ SEQ ID NO. 12), rat Duox1 (sense, 5′-[…]-3′ SEQ ID NO. 13; antisense, 5′-[…]-3′SEQ ID NO. 14), rat Duox2 (sense, 5′-[…]-3′ SEQ ID NO. 15; antisense, 5′-[…]-3′ SEQ ID NO. 16) and rat GAPDH (sense, 5′-[…]-3′ SEQ ID NO. 17; antisense, 5′-[…]-3′ SEQ ID NO. 18). PCR mixes contained 10 μl of 2×PCR buffer, 1.25 mM of each dNTP, 10 pmol of each forward and reverse primer, and 2.5 units of Taq polymerase in the final volume of 20 μl. Amplification was performed in 35 cycles at 60° C., 30 sec; 72° C., 1 min; 94° C., 30 sec. After the last cycle, all samples were incubated for an additional 10 min at 72° C. for final extension step. PCR fragments were analyzed on 1.2% agarose gel in 0.5×TAE containing ethidium bromide. Amplification of GAPDH, a relatively invariant internal reference RNA, was performed in parallel, and cDNA amounts were normalized against GAPDH mRNA levels. The primer set specifically recognized only the gene of interest as indicated by amplification of a single band of expected size. […]
Background: A western blot detects proteins with antibodies after separation by electrophoresis.

Assay [3] has as its system Nox1. Nature of the assay: Nox1 expression in SNDA neurons of MPTP-treated mice. The class given is in vivo.
Assay [4] relates to Nox1. Nature of the assay: Nuclear localization of Nox1-EGFP in N27 cells (confocal microscopy). The class given is cell-based, rat. To be noted: N27 cells expressing Nox1-EGFP; 6-OHDA 50 μM 6 h, rotenone 5 μM 18 h. From the text:
The observation that Nox1 was induced by a variety of oxidative stimuli in vitro led one to test Nox1 expression in the rat substantia nigra DA (SNDA) neurons administered with 6-OHDA. […] Neither astrocytes nor microglia expressed Nox1, as verified by co-immunostaining of Nox1 with GFAP (astrocytes) or CD11b (microglia) (FIG. 3B). Increased Nox1 transcript was found in the SN as shown by in situ hybridization (FIG. 3C). […] As early as 3 days post 6-OHDA injection, Nox1 expression was increased in the nucleus and in the cytoplasm of DA neurons (FIG. 4A). […] Nuclear expression of the Nox1/Rac1 complex was further analyzed in N27 cells after treatment with 6-OHDA. First, activated Rac1 was detected by immunoprecipitation of nuclear extracts of N27 cells after a 24 h treatment with 6-OHDA. […] Next, it was established that N27 cells stably expressing Nox1 tagged with EGFP at the C-terminus. […] To examine whether nuclear translocation of Nox1 in dopaminergic cells is observed under different conditions that cause dopaminergic neuronal death, mitochondrial respiratory complex inhibitor, rotenone, was tested.

Read-outs that look alike come from different tables or passages of the source.

The record followed here is US9394544B2, “Ameliorating oxidative stress in neurodegenerative disease via Nox1 targeting” (University of Central Florida Research Foundation, Inc., priority 2013, dated 2016).

For `c1ccc2c(c1)[I+]c1ccccc1-2` [DPI, diphenyleneiodonium], in assay [1] (30 min pre-treatment, 6-OHDA 100 μM), the “lowest concentration significantly reducing 6-OHDA-mediated ROS generation” value was found to be 0.1 µM. In addition, in assay [1], the “6-OHDA-mediated ROS generation (NBT assay)” value is reported as “significantly reduced”. On to `N#CC(C#N)=NNc1ccc(OC(F)(F)F)cc1` [FCCP], for which the “mRNA and protein levels of Nox1” value in assay [2] is “elevated”. In the case of `OO` [H2O2], the “mRNA and protein levels of Nox1” value in assay [2] (N27 cells) is recorded as “increase”.

For `CN1CC=C(c2ccccc2)CC1` [MPTP, 1-methyl-4-phenyl-1,2,3,6-tetrahydropyridine], in assay [3], the “Nox1 expression in the SNDA neurons” value was “Increased Nox1 expression”. Turning to `COc1cc(C(C)=O)ccc1O` [apocynin], the “6-OHDA-mediated ROS generation (NBT assay)” value in assay [1] was “significantly diminished”.

As to `CC(C)(C)c1ccc(CSc2cnn(C(C)(C)C)c(=O)c2Cl)cc1` [pyridaben], in assay [2] (N27 cells), the “mRNA and protein levels of Nox1” value is listed as “elevated”. On to `C=C(C)[C@H]1Cc2c(ccc3c2O[C@@H]2COc4cc(OC)c(OC)cc4[C@@H]2C3=O)O1` [rotenone], for which the “mRNA and protein levels of Nox1” value in assay [2] (N27 cells) is on record as “elevated”. Further, the “nuclear localization of Nox1” value in assay [4] is listed as “led to nuclear localization of Nox1”. For the compound antimycin A, in assay [2] (N27 cells), the “mRNA and protein levels of Nox1” value is given as “elevated”.
